# Data published in patent US20240391948A1, “NOVEL COMPOUND THAT INHIBITS TNF-ALPHA GENERATION AND INFLAMMASOME ACTIVITY AND PREPARATION METHOD THEREFOR” (SHAPERON INC., priority 2021, published 2024).
# Experiments:
# Type in all cases: cell-based
# [1] = tested on: U937 cells (human monocytic cell line); test: BzATP-induced IL-1β secretion inhibition in PMA-differentiated U937 cells; details: U-937, U937 cells differentiated with PMA, read-out: IL-1β production inhibition grade (IC50)
# Method in brief: (§1)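 Inhibition is given as IC50 (μM) in A-D bands, using distinct thresholds for TNF-α and for IL-1β. Secretion followed Pam2CSK4 stimulation (TNF-α) or BzATP stimulation (IL-1β) of compound-pretreated, PMA-differentiated U937 macrophages.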
# [2] = tested on: U937 cells (human monocytic cell line); test: Pam2CSK4-induced TNF-α secretion inhibition in PMA-differentiated U937 cells; details: U-937, U937 cells differentiated with PMA, read-out: TNF-α production inhibition grade (IC50)
# Method in brief: as §1
# [3] = tested on: J774A.1 (Mouse BALB/c monocyte macrophage cell line) cells; test: LPS+ATP-induced IL-1β secretion inhibition in J774A.1 cells; details: J774.A1, 1 μM compound, graded compared to taurodeoxycholic acid (positive control), read-out: IL-1β production inhibition grade
# Method in brief: (§2)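 Grades (A >100%, B 50–100%, C 20–50%, D <20%) express cytokine suppression by 1 μM compound relative to taurodeoxycholic acid. LPS-induced TNF-α and LPS+ATP-induced IL-1β secretion were measured in murine J774A.1 macrophage cells.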
# [4] = tested on: J774A.1 (Mouse BALB/c monocyte macrophage cell line) cells; test: LPS-induced TNF-α secretion inhibition in J774A.1 cells; details: J774.A1, 1 μM compound, graded compared to taurodeoxycholic acid (positive control), read-out: TNF-α production inhibition grade
# Method in brief: as §2
Structure (SMILES),IC50 [1] [nM],IC50 [2] [nM],inhibition at 1 µM [3] [%],inhibition at 1 µM [4] [%]
CC[C@H]1[C@@H](O)[C@@H]2[C@H](CC[C@]3(C)[C@@H]([C@H](C)CCC(=O)N4CC[C@@H](S(=O)(=O)O)C4)CC[C@@H]23)[C@@]2(C)CC[C@@H](O)C[C@@H]12 [NC40034],< 50,< 500,> 100,20 to 50
C[C@H](CCC(=O)N(CCN(C)C)CCS(=O)(=O)O)[C@H]1CC[C@H]2[C@@H]3CC[C@@H]4CC(=O)CC[C@]4(C)[C@H]3CC[C@]12C [NC30035],< 50,500 to 1000,> 100,> 100
C[C@H](CCC(=O)N[C@@H](C)CS(=O)(=O)O)[C@H]1CC[C@H]2[C@@H]3CC[C@@H]4CC(=O)CC[C@]4(C)[C@H]3CC[C@]12C [NC30028],≥ 200,500 to 1000,< 20,< 20
C[C@H](CCC(=O)N[C@H](CS(=O)(=O)O)c1ccccc1)[C@H]1CC[C@H]2[C@@H]3[C@H](O)C[C@@H]4C[C@H](O)CC[C@]4(C)[C@H]3C[C@H](O)[C@]12C [NC20018],≥ 200,1000 to 2000,< 20,< 20
C[C@H](CCC(=O)N1CCC[C@H](S(=O)(=O)O)C1)[C@H]1CC[C@H]2[C@@H]3CC[C@@H]4CC(=O)CC[C@]4(C)[C@H]3CC[C@]12C [NC30009],≥ 200,500 to 1000,20 to 50,50 to 100
C[C@H](CCC(=O)N(CCS(=O)(=O)O)C1CCCCC1)[C@H]1CC[C@H]2[C@@H]3CC[C@@H]4C[C@H](O)CC[C@]4(C)[C@H]3C[C@H](O)[C@]12C [NC10004],≥ 200,≥ 2000,50 to 100,20 to 50
C[C@H](CCC(=O)N(C)CCS(=O)(=O)O)[C@H]1CC[C@H]2[C@@H]3CC[C@@H]4C[C@H](O)CC[C@]4(C)[C@H]3C[C@H](O)[C@]12C [NC10006],≥ 200,500 to 1000,50 to 100,< 20
C[C@H](CS(=O)(=O)O)NC(=O)CC[C@@H](C)[C@H]1CC[C@H]2[C@@H]3CC[C@@H]4C[C@H](O)CC[C@]4(C)[C@H]3CC[C@]12C [NC10085],≥ 200,≥ 2000,< 20,< 20
C[C@H](CCC(=O)N[C@@H](Cc1ccccc1)CS(=O)(=O)O)[C@H]1CC[C@H]2[C@@H]3CC[C@@H]4CC(=O)CC[C@]4(C)[C@H]3CC[C@]12C [NC30014],≥ 200,500 to 1000,20 to 50,< 20
C[C@H](CCC(=O)N1CCC[C@@H](S(=O)(=O)O)C1)[C@H]1CC[C@H]2[C@@H]3CC[C@@H]4C[C@H](O)CC[C@]4(C)[C@H]3C[C@H](O)[C@]12C [NC10027],< 50,500 to 1000,> 100,< 20
C[C@H](CCC(=O)N(CCS(=O)(=O)O)Cc1ccccc1)[C@H]1CC[C@H]2[C@@H]3[C@H](O)C[C@@H]4C[C@H](O)CC[C@]4(C)[C@H]3C[C@H](O)[C@]12C [NC20005],50 to 100,500 to 1000,> 100,< 20
C[C@H](CCC(=O)NC[C@H](C)S(=O)(=O)O)[C@H]1CC[C@H]2[C@@H]3CC[C@@H]4C[C@H](O)CC[C@]4(C)[C@H]3C[C@H](O)[C@]12C [NC10038],50 to 100,≥ 2000,50 to 100,< 20
CC[C@H]1[C@@H](O)[C@@H]2[C@H](C[C@H](O)[C@]3(C)[C@@H]([C@H](C)CCC(=O)N[C@@H](CS(=O)(=O)O)c4ccccc4)CC[C@@H]23)[C@@]2(C)CC[C@@H](O)C[C@@H]12 [NC50019],≥ 200,1000 to 2000,50 to 100,< 20
C[C@H](CCC(=O)N(CCS(=O)(=O)O)C1CCCCC1)[C@H]1CC[C@H]2[C@@H]3CC[C@@H]4C[C@H](O)CC[C@]4(C)[C@H]3CC[C@]12C [NC10016],< 50,< 500,> 100,> 100
C[C@H](CCC(=O)N1CCC[C@H]1CS(=O)(=O)O)[C@H]1CC[C@H]2[C@@H]3CC[C@@H]4C[C@H](O)CC[C@]4(C)[C@H]3C[C@H](O)[C@]12C [NC10037],≥ 200,< 500,50 to 100,< 20
C[C@H](CCC(=O)N[C@H](CO)CS(=O)(=O)O)[C@H]1CC[C@H]2[C@@H]3CC[C@@H]4CC(=O)CC[C@]4(C)[C@H]3CC[C@]12C [NC30025],≥ 200,1000 to 2000,< 20,> 100
C[C@H](CCC(=O)N[C@H]1CCCC[C@H]1S(=O)(=O)O)[C@H]1CC[C@H]2[C@@H]3[C@H](O)C[C@@H]4C[C@H](O)CC[C@]4(C)[C@H]3C[C@H](O)[C@]12C [NC20027],< 50,≥ 2000,> 100,< 20
CC(C)C[C@H](CS(=O)(=O)O)NC(=O)CC[C@@H](C)[C@H]1CC[C@H]2[C@@H]3CC[C@@H]4C[C@H](O)CC[C@]4(C)[C@H]3CC[C@]12C [NC10087],< 50,500 to 1000,> 100,> 100
C[C@H](CCC(=O)N1CC[C@H](S(=O)(=O)O)C1)[C@H]1CC[C@H]2[C@@H]3CC[C@@H]4C[C@H](O)CC[C@]4(C)[C@H]3CC[C@]12C [NC10089],≥ 200,< 500,20 to 50,< 20
CC(C)[C@H](CS(=O)(=O)O)NC(=O)CC[C@@H](C)[C@H]1CC[C@H]2[C@@H]3[C@H](O)C[C@@H]4C[C@H](O)CC[C@]4(C)[C@H]3C[C@H](O)[C@]12C [NC20017],≥ 200,< 500,50 to 100,< 20
CC(C)[C@@H](CS(=O)(=O)O)NC(=O)CC[C@@H](C)[C@H]1CC[C@H]2[C@@H]3CC[C@@H]4C[C@H](O)CC[C@]4(C)[C@H]3CC[C@]12C [NC10072],< 50,< 500,20 to 50,< 20
CC[C@H]1[C@@H](O)[C@@H]2[C@H](C[C@H](O)[C@]3(C)[C@@H]([C@H](C)CCC(=O)NC4(CS(=O)(=O)O)CC4)CC[C@@H]23)[C@@]2(C)CC[C@@H](O)C[C@@H]12 [NC50032],50 to 100,≥ 2000,50 to 100,< 20
C[C@H](CCC(=O)N[C@H](Cc1ccccc1)CS(=O)(=O)O)[C@H]1CC[C@H]2[C@@H]3CC[C@@H]4CC(=O)CC[C@]4(C)[C@H]3CC[C@]12C [NC30015],≥ 200,< 500,< 20,< 20
